Measurements from patent US7442707B2, “CCI-779 polymorph and use thereof” (Wyeth, priority 2005, dated 2008).

Key:
[1] = Storage stability of crystalline Form II (conversion to Form I); format: physicochemical; conditions: stored under room temperature and pressure
Excerpt: Stable Form II can be prepared as described and stored under room temperature and pressure for greater than 3 months without conversion to Form I.

[2] = Powder flow characteristics from crystal morphology at bench scale; format: physicochemical; conditions: Form II plate-like morphology vs Form I needle-like

## COC1CC2CCC(C)C(O)(O2)C(=O)C(=O)N2CCCCC2C(=O)OC(C(C)CC2CCC(OC(=O)C(C)(CO)CO)C(OC)C2)CC(=O)C(C)/C=C(\C)C(O)C(OC)C(=O)C(C)CC(C)/C=C/C=C/C=C/1C (centres unmarked) [CCI-779 polymorph Form II, Rapamycin 42-ester with 3-hydroxy-2-(hydroxymethyl)-2-methylpropionic acid]
[1]
  storage time without conversion to Form I: greater than 3 months
[2]
  powder flow characteristics relative to Form I: better powder flow characteristics than form I
